Data: US11872261B2, “Lipoprotein targeting protease inhibitors and uses” (The United States of America, as represented by the …, priority 2016, dated 2024)

How the values were obtained:
Type in all cases: in vivo, human
[1] = test system: lipoprotein proteome (LDL, HDL-L, HDL-S); assay: Lipoprotein proteomics, spectral counting of LDL, HDL-L and HDL-S pools; conditions: 28 days vs baseline
Method: Collected plasma from each subject at baseline (n=10) and after 28 days of rosuvastatin treatment (n=10) was applied to two Superdex 200 columns (GE Healthcare) arranged in series on an Akta FPLC system. The flow rate was set to 0.5 mL/min and 0.5 mL fractions were collected. Fractions were assayed for phosphatidylcholine, total cholesterol, free cholesterol and triglyceride by enzymatic assays (Wako Diagnostics) to determine position of elution for lipoproteins. For each subject, fractions were combined to make LDL (elution vol. 17.5-20 mL), HDL-large (HDL-L; elution vol. 21-23 mL) and HDL-small (HDL-S; elution vol. 23-25 mL) pools, generating a total of 60 samples for MS analysis.
Pooled FPLC fractions were applied to a phospholipid binding resin and washed to isolate lipid bound protein components, as previously described (Gordon et al., J Proteome Res 9: 5239-5249, 2010). Resin bound proteins were then subjected to overnight trypsin digestion at 37° C. Resulting peptides were collected and then reduced with dithiothreitol (200 mM; 30 min at 37° C.) and carbamidomethylated with iodoacetamide (800 mM; 30 min at 25° C.). Digest solutions were dried, reconstituted in 100 μL of water+0.1% formic acid and desalted using ZipTips (Millipore), and stored at −20° C. until MS analysis.
Desalted samples were dried and reconstituted in 20 μL of water+0.1% formic acid and 10 μL was analyzed on a Thermo Orbitrap Velos Mass Spectrometer instrument. Blank runs were performed between each sample to prevent carry over. Peak lists were generated using Proteome Discoverer (version 1.3.0.339) and resulting spectra were searched against the SwissProt database (version 012214), using Mascot (version 2.4.0) to identify protein components of the lipoprotein fractions (fragment ion mass tolerance of 0.80 Da and a parent ion tolerance of 20 PPM). Search criteria included: human taxonomy, fixed modification: carbamidomethylation (C), variable modifications: oxidation (M), deamidation (N, Q) and up to two missed trypsin cleavage sites were allowed. Validation of peptide and protein identifications was performed using Scaffold software (version 4.1.1) and a 1.0% false discovery rate (FDR) for both peptide and protein thresholds and a minimum of 2 identified peptides were required per protein. Calculated decoy FDR for peptide and protein identifications were 0.03% and 0.7%, respectively. Spectral counting was used as a semi-quantitative comparison of protein abundance between baseline and on-treatment samples using normalized spectrum count calculated by the Scaffold software. Comparisons were only performed to estimate the relative abundance of the same protein in the same lipoprotein pool before and after rosuvastatin treatment; no comparisons were made between lipoprotein fractions. Data was analyzed by student's T-test to identify proteins with statistically significant (p<0.05) changes in normalized spectral counts. Because this MS analysis was intended primarily for screening purposes, to identify candidates for hypothesis driven functional experiments, the data analysis was not corrected for multiple comparisons. All MS data have been deposited to the ProteomeXchange Consortium (Vizcaino et al., Nat Biotechnol 32: 223-226, 2014) via the PRIDE partner repository with the dataset identifier PXD002633.
To test our hypothesis that rosuvastatin alters the lipoprotein proteome, we pooled fractions containing LDL and HDL and used mass spectrometry (MS) to analyze the lipid associated protein content of each of these lipoproteins in each subject at baseline and after 28 days on rosuvastatin. The HDL peak was divided into two halves, representing large and small HDL, to gain additional insight given the proteomic complexity of HDL. […]

[2] = test system: alpha-1-antitrypsin (A1AT); assay: ELISA of A1AT in large HDL fraction and in plasma
Excerpt: FIG. 5A-5C. Quantitative measurement of alpha-1-antitrypsin on HDL and in plasma. (FIG. 5A) Individual patient spectral counts for alpha-1-antitrypsin (A1AT) in large HDL at baseline (T0) and after 28 days (T28) of rosuvastatin treatment, n=10 for each time point. The “n=5” indicator points to data from 5 subjects with a high degree of overlap. (FIG. 5B) Quantitative measurement of A1AT in large HDL by ELISA assay. (FIG. 5C) Time course of plasma A1AT concentrations during rosuvastatin treatment and after two-week washout period (Day 42 time point). * indicates p<0.05 and ** indicates p<0.01 compared to T0.
To more quantitatively evaluate the change in A1AT levels observed in the MS data, we performed ELISA assays to measure A1AT in the large HDL fractions from all subjects.
In addition to measuring the A1AT content of large HDL, we also measured total A1AT in plasma. There was a clear trend of increasing plasma A1AT while on treatment and a return to baseline after a two week treatment washout, this effect was relatively small, approximately 10% (FIG. 5c). […] We calculated an A1AT:HDL-particle ratio (mol:mol) of about 1:100 at baseline and 1:25 after rosuvastatin treatment.

[3] = Clinical pilot study: lipoprotein particle numbers by nuclear magnetic resonance; conditions: 20 mg/day, 28 days vs baseline
Method: FIG. 1A-1C. Effect of rosuvastatin on plasma lipids and lipoprotein particle numbers. (FIG. 1A) Rosuvastatin effects on total plasma lipid levels (TC=total cholesterol; HDL-C=HDL cholesterol; LDL-C=LDL cholesterol; TG=triglyceride). The effect of rosuvastatin on LDL particle number (FIG. 1B) and HDL particle number (FIG. 1C) were measured by nuclear magnetic resonance. T0 and […] are time points indicating baseline and after 28 days of rosuvastatin treatment, respectively. Data are mean±standard deviation. * indicates p<0.01. Fasting blood samples were obtained from ten healthy volunteers participating in a study of the NIH Center for Human Immunology, intended to evaluate effects of a statin on the immune system. This protocol was approved by the institutional review board of the National Heart, Lung, and Blood Institute (NHLBI) and registered at clinicaltrials.gov (NCT01200836); all participants provided written informed consent. Three males and seven females were enrolled, with an average age of 44.1±11 years. Participants were selected to have normal LDL-C (<130 mg/dL) and were not on any lipid modification therapy prior to the study. […] HDL-C was measured by a direct assay (Siemens) and LDL-C was determined by the Friedewald equation. Lipoprotein particle numbers and average particle sizes were determined from heparinized plasma on a […] […]

## CC(C)c1nc(N(C)S(C)(=O)=O)nc(-c2ccc(F)cc2)c1/C=C/[C@@H](O)C[C@@H](O)CC(=O)O [rosuvastatin]
[1]; LDL fraction
  change in Ig kappa chain V-II spectral counts: +68%
  change in complement C3 spectral counts: +71%
  magnitude of reductions in protein spectral counts, LDL fraction: −20 to −71%
[1]; large HDL
  change in Ig lambda like polypeptide 5 spectral counts: −12%
  change in N-acetylmuramoyl-L-alanine amidase spectral counts: −69%
  change in alpha-1-antitrypsin (A1AT) spectral counts: +2438%
  change in ceruloplasmin spectral counts: +27%
  change in clusterin spectral counts: −13%
  change in kallikrein spectral counts: −26%
  increase in A1AT spectral counts associated with large HDL: 24 fold
[1]; small HDL fraction
  change in alpha-1-antichymotrypsin spectral counts: −89%
  change in apolipoprotein C-III spectral counts: −13%
  change in complement C2 spectral counts: −44%
  change in vitronectin spectral counts: +23%
[2]; ELISA, high responders, range
  elevation of A1AT in large HDL fraction, high responders: 5-18 fold
[2]; ELISA, low-responders, range
  increase in A1AT levels in large HDL fraction, low-responders: 6-36%
[2]; HDL-L, 28 days vs baseline, all subjects
  average increase in HDL-L associated A1AT by ELISA: 5.7 fold
[2]; estimated from A1AT content of HDL-L and plasma, baseline 0.84±0.037%
  fraction of total A1AT bound to HDL after therapy: approximately 4.54±1.73%
[2]; plasma, return to baseline after two week washout
  increase of total plasma A1AT while on treatment: approximately 10%
[3]; not statistically significant
  increase of HDL-p: 6.2%
[3]; p<0.001
  reduction of LDL particle number (LDL-p): 51%
